Tests used:
human D2 receptors [1] = biological target: T1, human D2 receptors (Homo sapiens, UniProt P14416); assay: cell-based
[2] = refractory schizophrenic patients; cited from earlier work
human 5HT2A receptors = human 5HT2A receptors (Homo sapiens, UniProt P28223)
human D2 receptors [3] = biological target: T1, human D2 receptors; settings: R-SAT agonist; short form of the D2 receptor; +/− standard deviation of three to eight determinations
[4] = test system: levodopa-associated dyskinesias and motor response fluctuations; assay: Double blind, placebo controlled study in parkinsonian patients; assay type: in vivo; settings: Patient Group II
Experimental: […]. […] […]. The compound of formula (I) is administered once daily for four weeks, with the dose escalating once each week. Assessments are made on the first day of each dose escalation.
The study is conducted on an […].
Patients who participate in the study have particular characteristics. The patients are between 30 and 80 years of age, inclusively. The patients had been diagnosed with idiopathic Parkinson's disease based on the presence of a characteristic clinical history and neurological findings.
The sample size is calculated for the primary endpoint: the Unified Parkinson's Disease Rating Scale (UPDRS) part III motor examination. […]. […] In this phase 2 study we will accept a two-sided alpha at a 0.05 significance level. Four patients will be added for the placebo group, totaling 21 subjects enrolled in the study.
Patients enter the levodopa infusion optimal rate determination (dose finding) portion of the study as soon as all prohibited medication has been withdrawn for at least four weeks.
Intravenous infusion of levodopa is conducted in an in-patient ward. […]. During the first and second days of optimal rate determination, two baseline UPDRS ratings are performed prior to levodopa infusion. […] Dyskinesia severity is similar to that experienced with each patient's usual therapeutic regimen. Levodopa will be administered by means of an indwelling intravenous catheter. The initial infusion rate of levodopa will not exceed 80 mg/hr.
Levodopa infusions will ordinarily last up to 8 hours, but may be continued uninterrupted for several days or be repeated on other days to obtain reliable assessment of motor function. The peripheral decarboxylase inhibitor carbidopa (50 mg, given every 3 hours) is administered orally starting at least one hour prior to intravenous administration of levodopa and continuing until levodopa effects have worn off. […]
Throughout the study, patients are evaluated weekly for drug safety and tolerability during their inpatient admission and two weeks after treatment for an outpatient follow-up visit. […]

spontaneous locomotion = assay: Spontaneous locomotion; assay type: in vivo; settings: s.c.; rats (FIG. 2A)
From the text: (§1) . In FIG. 2A and 2B, asterisks indicate statistical significance (p<0.05) compared to respective vehicle control. […]

[5] = test system: L-dopa induced dyskinesias; assay: L-dopa induced dyskinesia in MPTP monkeys; settings: s.c.; MPTP dyskinetic primates; dyskinetic movements scored as percentage of placebo (FIG. 3)
From the text: The use of 1-methyl-4-phenyl-1,2,3,6-tetrahydropyrilidine (MPTP) to induce parkinsonism in monkeys, coupled with prolonged administration of L-dopa induces severe dyskinesias.

[6] = test system: hyperactivity induced by MK-801 (dizocilpine); assay: MK-801 induced hyperactivity; assay type: in vivo, rats
From the text: as §1

[7] = test system: remaining monoaminergic receptor subtypes; assay: Intrinsic activity at remaining monoaminergic receptor subtypes
[8] = test system: hyperactivity induced by d-amphetamine; assay: Amphetamine induced hyperactivity; assay type: in vivo; settings: mice

human 5HT2A receptors, sequence (P28223 whole entry): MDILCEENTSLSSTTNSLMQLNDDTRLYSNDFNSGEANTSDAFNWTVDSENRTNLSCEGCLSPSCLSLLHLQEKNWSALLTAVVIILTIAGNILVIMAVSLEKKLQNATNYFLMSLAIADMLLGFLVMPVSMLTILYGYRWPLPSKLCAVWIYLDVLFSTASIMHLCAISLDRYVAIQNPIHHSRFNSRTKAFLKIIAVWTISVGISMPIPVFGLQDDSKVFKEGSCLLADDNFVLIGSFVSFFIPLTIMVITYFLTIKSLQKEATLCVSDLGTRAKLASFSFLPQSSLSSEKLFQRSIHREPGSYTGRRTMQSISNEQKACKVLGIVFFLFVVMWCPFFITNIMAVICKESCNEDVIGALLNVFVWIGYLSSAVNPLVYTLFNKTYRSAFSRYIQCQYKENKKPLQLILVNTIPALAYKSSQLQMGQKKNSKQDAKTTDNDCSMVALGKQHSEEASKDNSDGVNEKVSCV
T1 sequence (P14416 1-414 isoform P14416-2): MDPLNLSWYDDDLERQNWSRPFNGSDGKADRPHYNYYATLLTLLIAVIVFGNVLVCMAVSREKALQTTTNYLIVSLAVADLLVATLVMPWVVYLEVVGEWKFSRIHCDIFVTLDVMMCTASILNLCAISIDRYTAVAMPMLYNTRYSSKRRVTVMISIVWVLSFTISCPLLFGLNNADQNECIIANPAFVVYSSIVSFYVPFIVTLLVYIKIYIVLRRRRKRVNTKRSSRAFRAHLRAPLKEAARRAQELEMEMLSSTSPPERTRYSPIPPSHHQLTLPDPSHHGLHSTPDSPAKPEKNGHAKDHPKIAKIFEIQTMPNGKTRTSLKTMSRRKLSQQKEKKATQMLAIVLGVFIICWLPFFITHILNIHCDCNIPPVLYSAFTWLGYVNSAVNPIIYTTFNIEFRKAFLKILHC

Structure (SMILES): CC(C)C[C@H]1C(=O)N2CCC[C@H]2[C@]2(O)O[C@](NC(=O)[C@@H]3C=C4c5cccc6[nH]c(Br)c(c56)C[C@H]4N(C)C3)(C(C)C)C(=O)N12 [Bromocriptine]
- EC50 (human D2 receptors [1]): 0.43 nM

Structure (SMILES): CN1CCN(C2=Nc3cc(Cl)ccc3Nc3ccccc32)CC1 [Clozapine]
- average serum levels associated with therapeutic response [2]: ≥ 250 ng/mL

Structure (SMILES): NCCc1ccc(O)c(O)c1 [Dopamine]
- Potency against serotonin 5-HT2A receptor (FIG. 1B) (human 5HT2A receptors; R-SAT agonist, reference full agonist serotonin): no response

Structure (SMILES): CCCN(CCC)CCc1cccc2c1CC(=O)N2 [Ropinirole]
- Serotonin 2A, —Log (EC50) (human 5HT2A receptors): 6.85 +/− 0.77
- Dopamine D2, —Log (EC50) (human D2 receptors [3]): 8.19 +/− 0.58

Structure (SMILES): CC(C)COc1ccc(CNC(=O)N(Cc2ccc(F)cc2)C2CCN(C)CC2)cc1 [compound of formula (I), N-(1-methylpiperidin-4-yl)-N-(4-flourophenylmethyl)-N′-(4-(2-methylpropyloxy)phenylmethyl)carbamide]
- effect on the beneficial effects of levodopa on parkinsonian symptoms ([4]; oral): potentiates the benefical effects of levodopa on parkinsonian symptoms
- levodopa-associated dyskinesias and motor response fluctuations ([4]; oral once daily, 30 to 300 mg escalating weekly): show a reducing in levodopa-associated dyskinesias and motor response fluctuations
- tolerability ([4]; oral, 30 to 300 mg): tolerate the compound of formula (I) at all doses administered
- doses reducing spontaneous locomotion (spontaneous locomotion): ≥ 3 mg/kg
- effect on L-dopa induced dyskinesias [5]: significantly diminish L-dopa induced dyskinesias in a dose dependent manner
- effect on MK-801 hyperactivity ([6]; i.p. administration, 1 mg/kg): attenuated MK-801 hyperactivity
- minimum effective dose attenuating MK-801 hyperactivity ([6]; p.o., rats (FIG. 2B)): 10 mg/kg
- minimum effective dose attenuating MK-801 hyperactivity ([6]; s.c., rats (FIG. 2A)): 1 mg/kg
- intrinsic activity at remaining monoaminergic receptor subtypes [7]: lacks intrinsic activity
- effect on amphetamine hyperactivity, administered alone ([8]; 10.0 mg/kg P.O. and below, 3.0 mg/kg I.P. d-amphetamine): did not reduce hyperactivity
- amphetamine hyperactivity with the combination ([8]; 10.0 mg/kg P.O. compound of formula (I) combined with s.c. haloperidol): completely reversed

Structure (SMILES): O=C(CCCN1CCC(O)(c2ccc(Cl)cc2)CC1)c1ccc(F)cc1 [haloperidol, reference compound]
- minimally significant dose reducing amphetamine hyperactivity, in combination ([8]; haloperidol s.c. with 10.0 mg/kg P.O. compound of formula (I)): 0.03 mg/kg
- minimally significant dose reducing amphetamine hyperactivity, alone ([8]; s.c., 3.0 mg/kg I.P. d-amphetamine): 0.1 mg/kg
